In US10143648B2, “Peptide and oside extract of schisandra fruit and improvement in the response of the cutaneous neurosensory system” (LABORATOIRES EXPANSCIENCE, priority 2014, dated 2018):

What was measured:
TRPV1 receptor = molecular target: T1, TRPV1 receptor (Homo sapiens, UniProt Q8NER1); assay: Intracytoplasmic calcium mobilization (Fluo-4) in sensory neurons stimulated by capsaicin in co-culture with keratinocytes; assay type: cell-based; conditions: capsaicin 10^-6 M, vs. control
T1 construct: Sensory neurons cultured in the presence of normal human epidermal keratinocytes; endogenous in cells; host or cells: sensory neurons in co-culture with normal human epidermal keratinocytes
T1 sequence (Q8NER1 whole entry): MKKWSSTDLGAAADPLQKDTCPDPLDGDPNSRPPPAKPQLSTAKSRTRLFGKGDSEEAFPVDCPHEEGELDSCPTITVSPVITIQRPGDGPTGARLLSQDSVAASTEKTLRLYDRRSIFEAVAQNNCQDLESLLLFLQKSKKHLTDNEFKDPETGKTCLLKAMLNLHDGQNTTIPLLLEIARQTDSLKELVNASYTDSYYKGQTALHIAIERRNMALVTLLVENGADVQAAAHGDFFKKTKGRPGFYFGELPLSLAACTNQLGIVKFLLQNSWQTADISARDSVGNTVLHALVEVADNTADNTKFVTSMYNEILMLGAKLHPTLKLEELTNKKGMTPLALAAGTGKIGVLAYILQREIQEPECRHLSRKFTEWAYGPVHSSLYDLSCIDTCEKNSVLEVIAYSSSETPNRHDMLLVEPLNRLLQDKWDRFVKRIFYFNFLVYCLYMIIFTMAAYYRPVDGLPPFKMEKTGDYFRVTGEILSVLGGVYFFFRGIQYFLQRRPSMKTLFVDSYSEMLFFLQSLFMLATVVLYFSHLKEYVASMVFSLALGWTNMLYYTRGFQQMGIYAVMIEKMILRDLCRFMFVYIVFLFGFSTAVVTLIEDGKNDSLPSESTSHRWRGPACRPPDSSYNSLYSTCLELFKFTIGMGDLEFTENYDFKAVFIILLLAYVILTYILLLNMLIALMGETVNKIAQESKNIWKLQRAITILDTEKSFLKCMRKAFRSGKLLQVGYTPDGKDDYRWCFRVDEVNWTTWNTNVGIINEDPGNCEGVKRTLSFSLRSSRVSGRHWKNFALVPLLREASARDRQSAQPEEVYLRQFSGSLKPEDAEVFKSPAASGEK
Method: Activation of the TRPV1 receptor on sensory neurons can be evaluated by analyzing the electrical activity of sensory neurons by monitoring variations of the cytoplasmic calcium concentration. Indeed, when cells are stimulated by capsaicin, a massive amount of extracellular calcium enters the neuronal cytoplasm in order to trigger electrical activity and to cause a massive release of neuropeptides in the extracellular space. The variation of the level of fluorescence is analyzed by the incorporation of a calcium-dependent fluorescent probe (Fluo-4) in the cells. Thus, during the increase in calcium in the cells, the level of fluorescence increases in the cell body of the neurons. The higher this level, the higher the stimulation of the neurons. Sensory neurons cultured in the presence of normal human epidermal keratinocytes were incubated in the presence of the peptide and oside extract of Schisandra sphenanthera at concentrations of 0.005%, 0.01%, 0.05% and 0.1% (DM) or the reference molecule, capsazepine, at a concentration of 10^−5 M (Sigma). After 60 minutes of pre-incubation, the fluorescent probe, Fluo-4 (Molecular probe), was added to the culture medium and the cells were incubated 30 minutes. […] The significance of the results was confirmed by Bartlett's test.

CGRP = CGRP release by sensory neurons stimulated by capsaicin in co-culture with keratinocytes; assay type: cell-based; conditions: 60 min pre-incubation, extract 0.005%-0.1% (DM) or capsazepine 10^-5 M, capsaicin 10^-7 M, 15 min
Method: Sensory neurons were cultured in the presence of normal human epidermal keratinocytes. After 3 days of co-culture, the neurons project extensions in the form of free endings in contact with the keratinocytes. The cells were then incubated in the presence of the peptide and oside extract of Schisandra Sphenanthera at concentrations of 0.005%, 0.01%, 0.05% and 0.1% (DM) or the reference molecule, capsazepine, at a concentration of 10^−5 M (Sigma). After 60 minutes of pre-incubation, the neurons (in co-culture) were stimulated by capsaicin at a concentration of 10^−7 M (Sigma). After 15 minutes of stimulation, the culture supernatants were collected in order to assay the released CGRP. The CGRP assay was carried out using the CGRP assay kit (SpiBio). The significance of the results was confirmed by one-way analysis of variance followed by Dunnett's test.

Structure (SMILES)	level of fluorescence (quantity of intracytoplasmic calcium) after addition of the stimulus (TRPV1 receptor)	release of CGRP induced by capsaicin (CGRP)
COc1cc(CNC(=O)CCCC/C=C/C(C)C)ccc1O [capsaicin]	significant increase in the level of fluorescence	–
Oc1cc2c(cc1O)CN(C(=S)NCCc1ccc(Cl)cc1)CCC2 [capsazepine]	–	inhibitory effect
